{
  "source": "paper PMC9889419",
  "about": "(Pharmacological Reports, 2022)",
  "key": {"[1]": {"tested_on": "Frings mice", "assay": "Frings mice sound-induced seizures", "format": "in vivo", "conditions": "ip"}, "[2]": {"tested_on": "mice", "assay": "Rotarod test (neurotoxicity);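 further: in vivo neurotoxicity screen run within the NIH Epilepsy Therapy Screening Program (ETSP, formerly Anticonvulsant Screening Program)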", "format": "in vivo", "conditions": "ip, […]"}, "[3]": {"tested_on": "rats", "assay": "Whole body plethysmography", "format": "in vivo", "conditions": "6, 10 and 20 mg/kg ip, 4-h test period", "method": "Whole body plethysmography. The method, which detects the effects of a test substance on airway function, follows that described by Chong et al. and by Hamelmann et al.. Rats were placed individually in a single chamber plethysmograph (Buxco) in which they can move and drink freely. After a habituation period of 150 min, the following parameters were recorded: inspiratory time, expiratory time, peak inspiratory flow, peak expiratory flow, tidal volume, respiratory rate, relaxation time, pause, enhanced pause. All data generated were acquired using specialized EMKA Technologies software (lOX version 1.7.0; ANALYST version 1.49), connected to Buxco plethysmographic equipment. Recordings were taken for 30 min before and for 4 h after administration of the test substance. […] Each time point represented the mean value of a 2-min block (recorded 1 min before and 1 min after each time point). In cases where the data can be considered invalid, for example if recorded during a period of sniffing thereby causing a brief period of increased respiratory frequency, the retained values were those as close as possible to the theoretical time point. Results were expressed as absolute values and as percent changes from initial mean values (T0). […] Each test substance was evaluated at 3 doses (6 mg/kg, 10 mg/kg, and 20 mg/kg), administered ip, and compared with a vehicle control group. […]"}, "[4]": {"tested_on": "mice", "assay": "Tail immersion test (local anesthetic activity)", "format": "in vivo"}, "[5]": {"tested_on": "guinea pigs", "assay": "Corneal anesthesia", "format": "in vivo"}, "[6]": {"molecular_target": "T1, hNav1.2 sodium channel (Homo sapiens, UniProt Q99250)", "T1 construct": "host or cells: CHO cells", "assay": "Nav channel electrophysiology (IonWorks Quattro)", "format": "cell-based"}, "[7]": {"molecular_target": "T2, hNav1.5 sodium channel (Homo sapiens, UniProt Q14524)", "T2 construct": "host or cells: CHO cells", "T2 sequence (Q14524 whole entry)": "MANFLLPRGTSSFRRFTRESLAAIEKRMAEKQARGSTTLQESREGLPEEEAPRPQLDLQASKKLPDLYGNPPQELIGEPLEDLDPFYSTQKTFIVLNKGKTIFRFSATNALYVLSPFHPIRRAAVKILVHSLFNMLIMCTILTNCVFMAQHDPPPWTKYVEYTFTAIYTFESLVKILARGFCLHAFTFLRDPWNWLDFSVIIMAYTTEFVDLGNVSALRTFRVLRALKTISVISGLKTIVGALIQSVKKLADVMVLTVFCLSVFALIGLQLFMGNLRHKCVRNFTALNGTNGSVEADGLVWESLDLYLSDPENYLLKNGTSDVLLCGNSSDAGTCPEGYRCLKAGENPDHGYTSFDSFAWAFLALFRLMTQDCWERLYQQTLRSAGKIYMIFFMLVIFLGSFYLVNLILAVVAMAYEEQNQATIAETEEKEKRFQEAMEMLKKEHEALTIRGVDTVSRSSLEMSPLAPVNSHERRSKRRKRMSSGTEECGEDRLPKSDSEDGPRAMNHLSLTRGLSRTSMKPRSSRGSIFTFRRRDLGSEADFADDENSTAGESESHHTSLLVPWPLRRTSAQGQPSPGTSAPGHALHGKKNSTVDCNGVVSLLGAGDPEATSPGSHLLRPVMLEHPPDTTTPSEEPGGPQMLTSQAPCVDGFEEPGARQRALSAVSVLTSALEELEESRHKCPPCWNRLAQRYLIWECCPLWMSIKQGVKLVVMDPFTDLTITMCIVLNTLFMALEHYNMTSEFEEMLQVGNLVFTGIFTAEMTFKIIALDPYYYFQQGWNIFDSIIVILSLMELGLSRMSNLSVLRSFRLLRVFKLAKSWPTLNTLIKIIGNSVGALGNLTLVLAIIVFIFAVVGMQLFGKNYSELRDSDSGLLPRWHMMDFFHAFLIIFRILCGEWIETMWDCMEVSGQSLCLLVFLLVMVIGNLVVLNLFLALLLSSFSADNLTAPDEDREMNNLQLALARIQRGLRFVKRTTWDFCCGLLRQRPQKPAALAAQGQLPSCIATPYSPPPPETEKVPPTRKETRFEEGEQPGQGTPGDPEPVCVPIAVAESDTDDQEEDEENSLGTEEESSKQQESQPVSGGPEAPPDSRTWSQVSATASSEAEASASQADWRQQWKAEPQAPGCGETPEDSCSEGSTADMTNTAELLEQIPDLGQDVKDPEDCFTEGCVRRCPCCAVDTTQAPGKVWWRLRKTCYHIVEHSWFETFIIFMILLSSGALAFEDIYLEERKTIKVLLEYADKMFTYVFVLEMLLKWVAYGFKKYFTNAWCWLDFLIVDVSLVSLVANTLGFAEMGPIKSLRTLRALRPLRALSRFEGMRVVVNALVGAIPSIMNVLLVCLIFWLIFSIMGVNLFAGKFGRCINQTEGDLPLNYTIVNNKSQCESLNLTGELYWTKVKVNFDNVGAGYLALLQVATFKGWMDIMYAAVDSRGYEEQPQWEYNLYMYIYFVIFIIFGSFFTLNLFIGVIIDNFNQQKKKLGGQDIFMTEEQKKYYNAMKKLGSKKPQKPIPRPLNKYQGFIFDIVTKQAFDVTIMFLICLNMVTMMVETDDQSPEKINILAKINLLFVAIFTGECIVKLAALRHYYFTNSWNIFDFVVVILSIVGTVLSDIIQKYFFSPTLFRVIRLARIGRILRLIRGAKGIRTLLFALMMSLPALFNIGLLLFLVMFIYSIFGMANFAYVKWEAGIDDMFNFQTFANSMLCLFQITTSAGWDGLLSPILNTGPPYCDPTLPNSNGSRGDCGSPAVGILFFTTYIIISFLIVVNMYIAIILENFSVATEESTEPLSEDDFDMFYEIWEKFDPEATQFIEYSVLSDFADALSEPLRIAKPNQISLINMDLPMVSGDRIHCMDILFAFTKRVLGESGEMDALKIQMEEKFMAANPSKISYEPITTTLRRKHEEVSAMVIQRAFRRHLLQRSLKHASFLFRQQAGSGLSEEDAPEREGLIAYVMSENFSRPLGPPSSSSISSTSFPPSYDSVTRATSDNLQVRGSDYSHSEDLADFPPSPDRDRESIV", "assay": "Nav channel electrophysiology (IonWorks Quattro)", "format": "cell-based"}, "[8]": {"molecular_target": "α1 (non-selective)", "assay": "Radioligand binding", "parameters": "species or system rat"}, "[9]": {"molecular_target": "T3, hNav1.1 sodium channel (Homo sapiens, UniProt P35498)", "T3 construct": "host or cells: CHO cells", "assay": "Nav channel electrophysiology (IonWorks Quattro)", "format": "cell-based"}, "[10]": {"tested_on": "STZ-treated mice", "assay": "Streptozotocin-induced diabetic neuropathy, von Frey test", "format": "in vivo", "conditions": "for elevation of pain threshold (von Frey): STZ-treated mice"}, "[11]": {"tested_on": "normotensive anaesthetized rats", "assay": "Influence on blood pressure", "format": "in vivo", "conditions": "5 mg/kg iv, immediately after administration", "method": "Influence on blood pressure in rats. Rats were anaesthetized with thiopental (75 mg/kg ip). The right carotid artery was cannulated with polyethylene tube filled with heparin in saline to facilitate pressure measurements using a Datamax apparatus (Columbus Instruments)."}, "[12]": {"assay": "Rotarod test (neurotoxicity)", "format": "in vivo, mice", "conditions": "mouse, in vivo; mice, ip, 0.25 h"}, "[13]": {"assay": "pKa by potentiometric titration", "format": "physicochemical", "conditions": "aqueous solution titrated with 0.051 M NaOH; 37 °C", "method": "pKa. The assay was performed by potentiometric titration, at 37 °C. The method is based on the additional portions of 0.051 M NaOH solution to the aqueous solution of test compounds, on electromagnetic stirrer with contact thermometer (Heidolph MR Hei-Standard). NaOH solution was added in 500 μL portions using Eppendorf automatic pipette. Waiting a few seconds after each titrant addition allowed the solution temperature to stabilize. After this time pH was recorded with the use of pH-meter CP-551 (Elmetron) for precise determination of pH in laboratory conditions (pH 0–14; pH accuracy ± 0.01) with combined chloride electrode OSH-10-10 (enables measurements in the temperature range 0–60 °C and pH range 1–12). Then, next portion of titrant was added. Titration was completed after 15 mL of NaOH solution was added. Threefold repetitions of titration were applied. pKa of the tested compound was calculated on the basis of the pH values obtained."}, "[14]": {"assay": "Approximate solubility tests", "format": "physicochemical", "conditions": "pH 9.9 borate buffer", "method": "Borate buffer pH = 9.9 was selected as one of standard buffers at this pH range. […] Initially, three organic modifiers were considered: ethanol, dimethyl sulfoxide (DMSO) and 1,4-dioxane. […] Finally, dioxane was selected due to its higher boiling point, which reduced the risk of evaporation during a prolonged experiment. During the experiment, three degradation products were observed (tR = 13 min, tR = 15 min and tR = 17 min)."}, "[15]": {"molecular_target": "T4, hNav1.8/beta3 sodium channel (Homo sapiens, UniProt Q9Y5Y9)", "T4 construct": "host or cells: CHO cells", "assay": "Nav channel electrophysiology (IonWorks Quattro)", "format": "cell-based"}, "[16]": {"molecular_target": "T5, hNav1.6 sodium channel (Homo sapiens, UniProt Q9UQD0)", "T5 construct": "host or cells: CHO cells", "T5 sequence (Q9UQD0 whole entry)": "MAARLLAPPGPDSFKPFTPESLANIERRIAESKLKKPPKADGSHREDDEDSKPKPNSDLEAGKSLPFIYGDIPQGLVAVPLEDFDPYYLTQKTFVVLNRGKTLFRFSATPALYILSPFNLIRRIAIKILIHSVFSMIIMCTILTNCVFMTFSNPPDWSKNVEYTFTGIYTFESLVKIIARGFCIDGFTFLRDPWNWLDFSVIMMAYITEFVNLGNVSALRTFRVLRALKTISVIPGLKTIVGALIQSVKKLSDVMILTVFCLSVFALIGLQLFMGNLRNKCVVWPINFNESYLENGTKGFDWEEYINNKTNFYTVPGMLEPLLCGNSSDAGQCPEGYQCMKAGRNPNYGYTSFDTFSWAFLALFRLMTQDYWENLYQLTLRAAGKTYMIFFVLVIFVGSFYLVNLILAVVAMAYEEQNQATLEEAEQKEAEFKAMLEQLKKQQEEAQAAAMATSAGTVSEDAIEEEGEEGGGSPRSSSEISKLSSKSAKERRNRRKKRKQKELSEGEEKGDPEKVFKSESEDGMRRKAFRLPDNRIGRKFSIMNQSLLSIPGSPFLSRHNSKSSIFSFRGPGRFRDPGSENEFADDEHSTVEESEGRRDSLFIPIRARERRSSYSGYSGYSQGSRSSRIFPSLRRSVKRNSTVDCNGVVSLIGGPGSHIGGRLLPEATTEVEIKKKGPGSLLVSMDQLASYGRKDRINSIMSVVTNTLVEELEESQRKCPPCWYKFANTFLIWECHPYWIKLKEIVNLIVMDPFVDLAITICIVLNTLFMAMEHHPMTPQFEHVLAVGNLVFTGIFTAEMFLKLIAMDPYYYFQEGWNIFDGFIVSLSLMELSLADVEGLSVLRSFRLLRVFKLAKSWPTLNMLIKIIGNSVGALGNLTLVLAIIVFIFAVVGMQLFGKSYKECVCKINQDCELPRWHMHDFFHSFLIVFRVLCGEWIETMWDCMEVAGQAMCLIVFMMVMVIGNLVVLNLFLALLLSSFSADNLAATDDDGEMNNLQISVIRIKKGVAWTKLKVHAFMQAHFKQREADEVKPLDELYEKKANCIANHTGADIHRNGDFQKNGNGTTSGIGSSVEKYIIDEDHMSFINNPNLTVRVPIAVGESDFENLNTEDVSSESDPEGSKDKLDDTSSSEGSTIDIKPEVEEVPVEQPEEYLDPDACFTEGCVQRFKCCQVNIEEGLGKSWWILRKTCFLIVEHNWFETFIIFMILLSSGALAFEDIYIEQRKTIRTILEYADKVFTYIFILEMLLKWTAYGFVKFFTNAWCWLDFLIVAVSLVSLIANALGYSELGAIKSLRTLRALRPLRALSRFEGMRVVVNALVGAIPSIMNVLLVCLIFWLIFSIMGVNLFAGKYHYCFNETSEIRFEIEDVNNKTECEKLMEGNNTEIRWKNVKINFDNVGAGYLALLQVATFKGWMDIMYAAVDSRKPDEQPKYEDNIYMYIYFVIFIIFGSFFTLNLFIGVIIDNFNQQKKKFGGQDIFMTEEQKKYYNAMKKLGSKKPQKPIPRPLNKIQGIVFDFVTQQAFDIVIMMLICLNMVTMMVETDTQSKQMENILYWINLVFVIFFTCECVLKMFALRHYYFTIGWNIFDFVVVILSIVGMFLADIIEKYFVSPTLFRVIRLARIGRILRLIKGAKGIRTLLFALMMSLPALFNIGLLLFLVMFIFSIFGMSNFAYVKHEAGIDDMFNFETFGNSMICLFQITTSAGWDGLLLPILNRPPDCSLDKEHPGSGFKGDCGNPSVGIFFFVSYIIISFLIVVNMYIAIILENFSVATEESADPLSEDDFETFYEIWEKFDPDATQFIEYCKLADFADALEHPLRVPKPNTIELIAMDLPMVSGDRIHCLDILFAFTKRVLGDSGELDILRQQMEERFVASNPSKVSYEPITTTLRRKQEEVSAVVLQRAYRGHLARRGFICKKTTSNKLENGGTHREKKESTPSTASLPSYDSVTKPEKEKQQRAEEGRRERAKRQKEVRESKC", "assay": "Nav channel electrophysiology (IonWorks Quattro)", "format": "cell-based"}},
  "note": "Several values for one entry are separate records, joined by “and”; a condition that tells them apart may be missing. Equal values may be shown once. Where a name gives a salt, the structure may show the parent alone. Marks after values point to notes of the source that are not given here.",
  "data": [
    {"smiles": "CCC(CO)NCCOc1c(C)cccc1Cl", "note": "(stereo not shown) [Compound 4, R,S-2-((2-(2-chloro-6-methylphenoxy)ethyl)amino)butan-1-ol]", "values": [
      {"measurement": "Frings mice sound-induced seizures ED50", "setting": "[1]", "result": "6.05 (4.23–8.45) mg/kg"},
      {"measurement": "Rotarod TD50", "setting": "[2]; female mice", "result": "40.11 (36.49–42.98) mg/kg"},
      {"measurement": "Rotarod TD50", "setting": "[2]; mice", "result": "54.99 (52.95–56.94) mg/kg"}
    ]},
    {"smiles": "CCC(CO)NCCOc1c(C)cccc1Cl", "note": "(stereo not shown) [KM-408, R,S-2-((2-(2-chloro-6-methylphenoxy)ethyl)amino)butan-1-ol hydrochloride]", "values": [
      {"measurement": "effects on respiratory parameters", "setting": "[3]", "result": "No significant effects"},
      {"measurement": "Reaction time to painful stimulus", "setting": "[4]; 0.062%", "result": "4.4 ± 1.0", "unit": "s"},
      {"measurement": "Prolongation of the time reaction", "setting": "[4]; 0.125%", "result": 42.9, "unit": "%"},
      {"measurement": "Reaction time to painful stimulus", "setting": "[4]; 0.125%", "result": "5.0 ± 1.0", "unit": "s"},
      {"measurement": "Prolongation of the time reaction", "setting": "[4]; 0.5%", "result": "166% and 165.7%"},
      {"measurement": "Reaction time to painful stimulus", "setting": "[4]; 0.5%", "result": "9.3 ± 0.9", "unit": "s"},
      {"measurement": "Prolongation of the time reaction", "setting": "[4]; 2.0%", "result": "323% and 322.9%"},
      {"measurement": "Reaction time to painful stimulus", "setting": "[4]; 2.0%", "result": "14.8 ± 1.9", "unit": "s"},
      {"measurement": "Reaction time to painful stimulus", "setting": "[4]; […]", "result": "7.4 ± 1.0", "unit": "s"},
      {"measurement": "tail immersion test: active at", "setting": "[4]; mice", "result": 0.5, "unit": "%"},
      {"measurement": "Inhibition of pain reaction", "setting": "[5]; 0.5%, 5 min", "result": "94.4*** %"},
      {"measurement": "Inhibition of pain reaction", "setting": "[5]; 0.5%, 30 min", "result": 8.3, "unit": "%"},
      {"measurement": "Inhibition of pain reaction", "setting": "[5]; […], 5 min", "result": "80.5*** %"},
      {"measurement": "corneal anesthesia: active at", "setting": "[5]; guinea pigs", "result": 0.125, "unit": "%"},
      {"measurement": "IC50", "setting": "[6]; 10 Hz", "result": 15.6, "unit": "µM"},
      {"measurement": "IC50", "setting": "[6]; Inactivated state", "result": "< 10", "unit": "µM"},
      {"measurement": "IC50", "setting": "[6]; Tonic block", "result": 48.7, "unit": "µM"},
      {"measurement": "IC50", "setting": "[7]; 10 Hz", "result": 4.85, "unit": "µM"},
      {"measurement": "IC50", "setting": "[7]; Inactivated state", "result": "< 10", "unit": "µM"},
      {"measurement": "IC50", "setting": "[7]; Tonic block", "result": 47.9, "unit": "µM"},
      {"measurement": "IC50", "setting": "[8]", "result": 12, "unit": "µM"},
      {"measurement": "Ki", "setting": "[8]", "result": 3.3, "unit": "µM"},
      {"measurement": "% of control specific binding", "setting": "[8]; 0.01 μM", "result": 102.4, "unit": "%"},
      {"measurement": "% of control specific binding", "setting": "[8]; 0.1 μM", "result": 97.3, "unit": "%"},
      {"measurement": "% of control specific binding", "setting": "[8]; 1 μM", "result": 90.0, "unit": "%"},
      {"measurement": "% of control specific binding", "setting": "[8]; 10 μM", "result": 55.9, "unit": "%"},
      {"measurement": "% of control specific binding", "setting": "[8]; 100 μM", "result": 12.8, "unit": "%"},
      {"measurement": "IC50", "setting": "[9]; 10 Hz", "result": 17.5, "unit": "µM"},
      {"measurement": "IC50", "setting": "[9]; Inactivated state", "result": "< 10", "unit": "µM"},
      {"measurement": "IC50", "setting": "[9]; Tonic block", "result": 64.2, "unit": "µM"},
      {"measurement": "elevation of pain threshold (von Frey)", "setting": "[10]; 1 mg/kg", "result": 132, "unit": "%"},
      {"measurement": "elevation of pain threshold (von Frey)", "setting": "[10]; 10 mg/kg", "result": 125, "unit": "%"},
      {"measurement": "STZ-induced pain (von Frey): active at", "setting": "[10]; mice, ip", "result": 1, "unit": "mg/kg"},
      {"measurement": "lowering of diastolic blood pressure", "setting": "[11]", "result": "approximately 21 mmHg"},
      {"measurement": "lowering of systolic blood pressure", "setting": "[11]", "result": "approximately 21 mmHg"},
      {"measurement": "TD50", "setting": "[12]", "result": 64.3, "unit": "mg/kg"},
      {"measurement": "pKa", "setting": "[13]", "result": 9.5},
      {"measurement": "solubility", "setting": "[14]; 20% dioxane", "result": "dissolved fully"},
      {"measurement": "solubility", "setting": "[14]; 20% ethanol", "result": "dissolved fully"},
      {"measurement": "solubility", "setting": "[14]; DMSO above 30%", "result": "full solubility has not been achieved"},
      {"measurement": "IC50", "setting": "[15]; 10 Hz", "result": 15.2, "unit": "µM"},
      {"measurement": "IC50", "setting": "[15]; Inactivated state", "result": "< 10", "unit": "µM"},
      {"measurement": "IC50", "setting": "[15]; Tonic block", "result": 44.1, "unit": "µM"},
      {"measurement": "IC50", "setting": "[16]; 10 Hz", "result": 20.5, "unit": "µM"},
      {"measurement": "IC50", "setting": "[16]; Inactivated state", "result": "< 10", "unit": "µM"},
      {"measurement": "IC50", "setting": "[16]; Tonic block", "result": 60.1, "unit": "µM"}
    ]}
  ]
}
